Data as given in publication PMC11211886 (Frontiers in Pharmacology, 2024).
Read-outs that look alike come from different tables or passages of the source.

Tests used:
[1] = Metabolic stability in human liver microsomes; format: in vitro ADME
Procedure: FMO was deactivated by heating liver microsomes at 45°C for 5 min. […] The natural logarithm of the percentage of the drug remaining was plotted against the incubation time, and the slope of the linear regression (-k) was converted to in vitro half-lives (t1/2) using the following equation: […] (1) metabolic clearance is the major mechanism of clearance; (2) liver is the major organ of clearance; and (3) oxidation is the major metabolic pathway. CLint,in vitro=k / Cmicrosomes , Scaled CLint,in vivo=CLint,in vitro×microsomes yield×liver weight, where Cmicrosomes means the experimental protein concentration (0.5 mg/mL) in the incubation system. […] Then, the scaled in vivo intrinsic clearance was used to predict the systemic clearance (equal to the hepatic clearance) using the well-stirred venous equilibration model ([Houston, 1994]).

[2] = test system: CYP3A4 mRNA; assay: CYP induction in human hepatocytes, CYP3A4 mRNA (RT-PCR); format: in vitro ADME
Procedure: (§1) […] […] […] Enzyme activity for each CYP isoform was reported as a fold change over vehicle control and the percent of positive control (detailed calculation in Supplementary 1.1). Hepatocytes were harvested with a lysis buffer from RNeasy 96 Kit (Qiagen Inc., Germantown, MD, USA) to isolate RNA, which was analyzed by real-time quantitative polymerase chain reaction (RT-PCR). […] Emax (the maximal observed induction) and EC50 (the concentration that supports half-maximal induction) were estimated by non-linear regression of fold increase in CYP mRNA expression versus concentration plots.
% of positive control = [(fold change in treated sample)-1] / [(fold change in positive control)-1] × 100

[3] = Cytotoxicity on human hepatocytes in induction assay; format: cell-based; conditions: 20 μM, CYP2C induction evaluation (data not shown)
Procedure: as §1

[4] = test system: plasma proteins; assay: Plasma protein binding (RED), rat plasma; format: in vitro ADME
Procedure: The plate containing plasma and buffer was equilibrated for 6 h in a 37°C water shaking bath. After incubation, aliquots of buffer and plasma (20 µL) on both sides were collected and precipitated using organic solvents. […] The post-dialysis recovery of amdizalisib was also measured.

[5] = biological target: T1, CYP1A2 (Homo sapiens, UniProt P05177); assay: Time-dependent CYP inhibition in HLM, CYP1A2; format: in vitro ADME; conditions: 10 μM, 30 min pre-incubation with NADPH
T1 construct: tissue Life Technologies (Durham, NC, USA); host or cells: human liver microsomes
T1 sequence (P05177 1-516): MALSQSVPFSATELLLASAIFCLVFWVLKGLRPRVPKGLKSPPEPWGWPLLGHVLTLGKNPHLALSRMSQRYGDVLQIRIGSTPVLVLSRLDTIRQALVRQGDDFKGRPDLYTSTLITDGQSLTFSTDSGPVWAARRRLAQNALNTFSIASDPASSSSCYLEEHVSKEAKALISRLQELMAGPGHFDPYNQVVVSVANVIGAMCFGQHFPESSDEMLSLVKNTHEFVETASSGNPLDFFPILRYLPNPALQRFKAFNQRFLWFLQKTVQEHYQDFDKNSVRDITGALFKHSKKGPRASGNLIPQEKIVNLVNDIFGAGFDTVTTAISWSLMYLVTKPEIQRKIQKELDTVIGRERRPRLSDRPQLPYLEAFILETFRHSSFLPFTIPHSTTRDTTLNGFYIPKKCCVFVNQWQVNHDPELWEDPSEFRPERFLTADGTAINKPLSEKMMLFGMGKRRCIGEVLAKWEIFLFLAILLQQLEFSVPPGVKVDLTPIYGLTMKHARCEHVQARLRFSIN
Procedure: The procedure of time-dependent CYP inhibition was similar to that used for CYP reversible inhibition, as mentioned above, except that a pre-incubation step was added. […] Another appropriate volume of the NADPH-regenerating system and probe substrate were added to initiate the CYP isoform enzyme activity test step. For this step, the incubation period was 10 min, except for CYP2B6, CYP2C8, and CYP3A4/5 (probe substrate: midazolam), which was 3 min to make sure the reaction was under initial linear rates. After incubation for the designated time periods at 37°C, the ice-cold acetonitrile containing IS was added to quench the reaction. […] (Ainactivator/[…] represents the enzyme activity remaining due to the inhibition by the diluted inactivator in the enzyme activity test step, and (Ainactivator/[…] represents the remaining enzyme activity due to pre-incubation loss plus inhibition by the diluted inactivator in the enzyme activity test step.

[6] = Single-dose PK and food effect in beagle dogs (IV/PO); design: species or system beagle dog; conditions: in vivo; for AUC(0-inf): AUC0-inf
Procedure: Twelve beagle dogs (6-10 kg, male: female = 1:1) purchased from Beijing Marshall Biotechnology Co. Ltd. (Beijing, China) were enrolled in a three-period self-control cross-over study with a washout time of 1 week. […] In Period 1 and Period 2, dogs were fasted overnight until dosing. […] Approximately 1.0 mL of blood was collected per time point from the jugular vein using a 2 mL injector and transferred to a 3 mL tube that contained sodium heparin. The collected blood samples were centrifuged at 3,500 g for 5 min at 4°C to collect plasma within 30 min after sample collection. […] Animals were fasted overnight and for approximately 4 h post-dose. […] At each time point, approximately 1.0 mL of blood was collected from the femoral vein and transferred into an individual tube that contained sodium heparin. The blood samples were centrifuged at 3,500 g for 5 min at 4°C to harvest plasma.

[7] = both sexes, beagle, dog, iv, 0.5 mg/kg
[8] = both sexes, beagle, dog, po, 0.5 mg/kg
[9] = both sexes, beagle, dog, po, 3.5 mg/kg
[10] = both sexes, beagle, dog, po, 25 mg/kg

Structure (SMILES): C[C@H](Nc1ncnc(N)c1C#N)c1cc2ncc(Cl)n2nc1-c1ccccc1 [Amdizalisib]
- Predicted CL sys ([1]; female human liver microsomes, FMO deactivation): 5.07 mL/min/kg
- CLint scaled at 1 µM ([1]; female, human, microsomes, pH 7.4, Predicted CL int, iv vivo): 5.78 mL/min/kg
- half-life at 1 µM ([1]; female, human, microsomes, pH 7.4, in vitro t1/2): 2.32 h
- parent drug remaining ([1]; male, human, microsomes, 2 h, 1 µM, pH 7.4): > 80%
- R3 value (CYP3A4 induction, basic kinetic model) [2]: ≤ 0.8
- induction on CYP3A4 mRNA expression ([2]; 20 uM): >2-fold induction on CYP1A2, 2B6, 3A4, 2C9 mRNA expression at 20 uM
- Gene expression Percent of PC (%) ([2]; CYP3A4, donor seven, 1 µM): 8.40%
- Gene expression Percent of PC (%) ([2]; CYP3A4, donor seven, 3 µM): 2.70%
- Gene expression Percent of PC (%) ([2]; CYP3A4, donor seven, 10 µM): 46.6%
- Gene expression Percent of PC (%) ([2]; CYP3A4, donor seven, 20 µM): 23.3%
- Gene expression Percent of PC (%) ([2]; CYP3A4, donor seven, 30 µM): 53.6%
- Gene expression Percent of PC (%) ([2]; CYP3A4, donor six, 1 µM): 1.00%
- Gene expression Percent of PC (%) ([2]; CYP3A4, donor six, 3 µM): 1.60%
- Gene expression Percent of PC (%) ([2]; CYP3A4, donor six, 10 µM): 11.9%
- Gene expression Percent of PC (%) ([2]; CYP3A4, donor six, 20 µM): 21.4%
- Gene expression Percent of PC (%) ([2]; CYP3A4, donor six, 30 µM): 21.9%
- Gene expression Percent of PC (%) ([2]; CYP3A4, donor two, 1 µM): 1.30%
- Gene expression Percent of PC (%) ([2]; CYP3A4, donor two, 3 µM): 0.60%
- Gene expression Percent of PC (%) ([2]; CYP3A4, donor two, 10 µM): 15.9%
- Gene expression Percent of PC (%) ([2]; CYP3A4, donor two, 20 µM): 13.4%
- Gene expression Percent of PC (%) ([2]; CYP3A4, donor two, 30 µM): 28.1%
- Emax, CYP3A4 expression ([2]; donor seven): 6.97 fold
- Emax, CYP3A4 expression ([2]; donor six): 35.7 fold
- Emax, CYP3A4 expression ([2]; donor two): > 26.5 fold
- cytotoxic effect on cell viability [3]: exhibited cytotoxicity against human hepatocytes in one donor
- Binding fraction to plasma proteins, Rat ([4]; 0.1 µM): 87.2 ± 1.72%
- Binding fraction to plasma proteins, Rat ([4]; 1 µM): 90.2 ± 0.65%
- Binding fraction to plasma proteins, Rat ([4]; 20 µM): 89.9 ± 0.37%
- activity loss of CYP1A2 [5]: less than 10%
- AUC(0-t) [6, 7]: 750 ± 272 ng·h/mL
- Vd [6, 7]: 2.4 ± 0.354 L/kg
- AUC(0-inf) [6, 7]: 772 ± 272 ng·h/mL
- MRT ([6]; both sexes, beagle, dog, iv, 0.5 mg/kg, Beagle dog, fasted, IV 0.5 mg/kg, read-out: MRT): 3.65 ± 1.29 h
- half-life ([6]; both sexes, beagle, dog, iv, 0.5 mg/kg, Beagle dog, fasted, IV 0.5 mg/kg, read-out: t1/2 (converted)): 3.02 ± 1.27 h
- MRT [6, 8]: 9.66 ± 6.73 h
- Tmax [6, 8]: 1.92 ± 0.665 h
- half-life [6, 8]: 7.22 ± 6.55 h
- AUC(0-inf) [6, 8]: 359 ± 259 ng·h/mL
- Cmax ([6]; both sexes, beagle, dog, po, 0.5 mg/kg, Cmax): 42.4 ± 21.8 ng/mL
- AUC(0-t) [6, 9]: 5540 ng·h/mL
- MRT [6, 9]: 13.8 ± 4.85 h
- Tmax [6, 9]: 6.25 ± 9.11 h
- AUC(0-inf) [6, 9]: 5660 ng·h/mL
- half-life ([6]; both sexes, beagle, dog, po, 3.5 mg/kg, Beagle dog, fasted, PO 3.5 mg/kg, read-out: t1/2 (converted)): 6.08 ± 1.48 h
- AUC(0-t) [6, 10]: 66500 ng·h/mL
- AUC(0-inf) [6, 10]: 72800 ng·h/mL
- MRT ([6]; both sexes, beagle, dog, po, 25 mg/kg, Beagle dog, fasted, PO 25 mg/kg, read-out: MRT): 31.8 ± 10.2 h
- Tmax ([6]; both sexes, beagle, dog, po, 25 mg/kg, Beagle dog, fasted, PO 25 mg/kg, read-out: Tmax): 15 ± 10.4 h
- half-life ([6]; both sexes, beagle, dog, po, 25 mg/kg, Beagle dog, fasted, PO 25 mg/kg, read-out: t1/2 (converted)): 13.9 ± 5.07 h
- Tmax ([6]; both sexes, beagle, dog, po, 25 mg/kg, Beagle dog, fed, PO 25 mg/kg, read-out: Tmax): 7 ± 8.34 h
- half-life ([6]; both sexes, beagle, dog, po, 25 mg/kg, Beagle dog, fed, PO 25 mg/kg, read-out: t1/2 (converted)): 17.4 ± 2.49 h
- clearance ([6]; both sexes, Beagle dog, fasted, IV 0.5 mg/kg): 11.8 ± 3.61 mL/min/kg
- Cmax ([6]; both sexes, Beagle dog, fasted, PO 3.5 mg/kg, read-out: Cmax): 347 ± 105 ng/mL
- CL as % of the hepatic blood flow ([6]; both, beagle, dog, iv): 38.1%
- Cmax ([6]; both, beagle, dog, po, 25 mg/kg): 2,159 ± 1,070 ng/mL
